Data taken from PMC5506877 (Heliyon, 2017).
Values joined by “and” are separate entries in the source; they are usually repeats but may differ in a detail not shown here. Identical values can stand only once.

Legend:
[1] = tested on: NCI-H2228 NSCLC cell line that harbours EML4-ALK fusion; experiment: cell growth inhibition, CellTiter-Glo, NCI-H2228 spheroid culture; format: cell-based; settings: for IC50: Homo sapiens
Protocol: Then test article solutions were added and the cell viability was measured after a 120-h incubation in a CO2 incubator. The luminescence was measured by EnVision HTS and the cell viability was calculated.

[2] = plasma protein binding by equilibrium dialysis; format: in vitro ADME, human; settings: for recovery at 24 h: pooled human plasma dialysed against PBS, human plasma / PBS after dialysis, read-out: recovery in the plasma protein binding (equilibrium dialysis) experiment
Protocol: Plasma was obtained by centrifugation (4 °C, 1600 g, 10 min, CF7D2, Hitachi Koki) of EDTA‐treated blood from three healthy male volunteers and was then pooled. […] Samples for M4 were mixed with deuterated M4 as an internal standard and acetonitrile/methanol (1:1, v/v). After centrifugation, the supernatant was injected into an LC/ESI-MS/MS system consisting of ACQUITY Ultra Performance LC (Waters) and API 4000 (AB Sciex) in positive-ion multiple-reaction monitoring (MRM) mode to measure M4 (Q1: m/z 457 and Q3: m/z 396) concentration. Chromatography was performed using ACQUITY UPLC BEH Phenyl (2.1 mm I.D. × 50 mm, 1.7 μm, Waters) at 60 °C; MP A: water/98% formic acid (1000/1, v/v), MP B: methanol/98% formic acid (1000/1, v/v), with a flow rate of 0.7 mL/min and a gradient program as follows: (time, % MP B): 0 min, 40%; 0.3 min, 40%; 1.9 min, 45%; 1.91 min, 90%; 2.20 min, 90%; 2.21 min, 40%; 2.70 min, stop. For the protein binding of M4, 1–5000 ng/mL in human plasma, and 0.5–2500 ng/mL in PBS were calibrated.
The recovery was calculated by the following equation.
Protein binding was calculated by the following equation.
Protein binding = (1−Cf/Cp) × 100 (%)
Where Cf and Cp represent the concentration in PBS and in plasma, respectively.

[3] = cited from earlier work
ALK = ALK (Homo sapiens, UniProt Q9UM73); experiment: inhibitory activity against ALK, cell-free TR-FRET kinase assay; format: biochemical; settings: 90 min at 30 °C, geometric mean of triplicates
Chain of ALK (Q9UM73 19-1620): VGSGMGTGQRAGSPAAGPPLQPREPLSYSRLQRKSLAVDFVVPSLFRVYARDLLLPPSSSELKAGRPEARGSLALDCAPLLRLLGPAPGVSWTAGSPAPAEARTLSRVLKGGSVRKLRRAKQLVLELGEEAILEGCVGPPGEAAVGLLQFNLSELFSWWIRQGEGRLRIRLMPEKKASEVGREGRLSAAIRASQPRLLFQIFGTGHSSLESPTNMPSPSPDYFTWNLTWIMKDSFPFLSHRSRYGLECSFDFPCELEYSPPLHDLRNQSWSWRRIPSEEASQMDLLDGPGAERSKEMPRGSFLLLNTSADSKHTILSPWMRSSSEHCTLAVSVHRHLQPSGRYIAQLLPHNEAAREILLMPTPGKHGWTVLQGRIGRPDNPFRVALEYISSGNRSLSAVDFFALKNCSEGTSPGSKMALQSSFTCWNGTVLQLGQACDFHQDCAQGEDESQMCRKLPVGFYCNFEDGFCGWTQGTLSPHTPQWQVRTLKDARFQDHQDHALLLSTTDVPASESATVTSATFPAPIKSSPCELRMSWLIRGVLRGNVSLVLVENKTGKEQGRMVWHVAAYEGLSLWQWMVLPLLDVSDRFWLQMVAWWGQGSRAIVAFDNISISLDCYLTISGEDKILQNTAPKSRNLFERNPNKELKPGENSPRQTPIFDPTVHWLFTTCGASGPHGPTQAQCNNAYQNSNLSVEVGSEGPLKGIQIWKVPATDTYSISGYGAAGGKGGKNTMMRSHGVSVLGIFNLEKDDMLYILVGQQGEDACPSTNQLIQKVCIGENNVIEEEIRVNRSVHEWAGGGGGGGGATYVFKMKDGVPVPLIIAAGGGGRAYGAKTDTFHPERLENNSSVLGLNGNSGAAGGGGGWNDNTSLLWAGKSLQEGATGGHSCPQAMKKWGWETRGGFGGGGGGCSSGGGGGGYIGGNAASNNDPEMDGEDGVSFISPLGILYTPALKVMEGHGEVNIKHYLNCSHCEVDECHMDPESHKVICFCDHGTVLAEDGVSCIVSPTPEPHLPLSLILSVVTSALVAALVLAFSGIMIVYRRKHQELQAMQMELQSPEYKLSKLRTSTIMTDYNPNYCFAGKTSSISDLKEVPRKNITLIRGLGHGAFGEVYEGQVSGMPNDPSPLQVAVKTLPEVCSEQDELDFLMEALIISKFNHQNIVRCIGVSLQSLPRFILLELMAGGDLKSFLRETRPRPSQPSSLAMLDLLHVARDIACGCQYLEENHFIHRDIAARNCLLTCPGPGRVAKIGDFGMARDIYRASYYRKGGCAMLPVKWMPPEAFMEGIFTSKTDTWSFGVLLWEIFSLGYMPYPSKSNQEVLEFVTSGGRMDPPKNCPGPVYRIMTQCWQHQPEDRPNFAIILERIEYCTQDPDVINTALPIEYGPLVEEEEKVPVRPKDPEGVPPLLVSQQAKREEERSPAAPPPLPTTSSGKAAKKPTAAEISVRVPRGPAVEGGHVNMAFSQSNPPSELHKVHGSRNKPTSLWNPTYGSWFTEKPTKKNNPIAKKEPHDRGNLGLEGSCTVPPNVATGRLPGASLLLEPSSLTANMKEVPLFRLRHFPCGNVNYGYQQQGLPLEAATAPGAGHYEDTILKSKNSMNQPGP
Protocol: Solutions of test articles, substrate/ATP (2 μmol/L substrate peptide-0.2 mol/L HEPES buffer containing 60 μmol/L ATP, 20 mmol/L MgCl2, 0.2 mmol/L DTT, and 40 μmol/L Na3VO4) and the enzyme (final concentration of 200 ng/mL) were mixed in a clear-bottomed 384-well black plate and incubated for 90 min at 30 °C. After adding stop solution (100 mmol/L EDTA-0.1 mol/L HEPES buffer), TR-FRET reagent (2.5 nmol/L of LANCE® Eu-W1024-labeled anti-phosphotyrosine (PT66) and 6.25 μg/mL of Streptavidine SureLight® APC) was added and the time-resolved fluorescence was measured by EnVision HTS (Model 2104, PerkinElmer).

[4] = human ADME study: metabolite profiling in plasma, urine and faeces after single oral [14C]alectinib; format: in vivo
Protocol: Human plasma for protein binding was obtained from three healthy male volunteers. All participants provided written informed consent prior to study related procedures. The protocol of human ADME study was approved by the Independent Ethics Committee of the Stichting Beoordeling Ethiek Bio-Medisch Onderzoek (Assen, The Netherlands), and that of protein binding study was approved by Chugai IRB.
Plasma samples were pooled at 4 h and 6 h (4 h + 6 h), and 8 h and 12 h (8 h +12 h) across the six subjects. An 18-mL aliquot of pooled plasma was extracted with the same volume of acetonitrile twice, and then the extract was lyophilized. The resulting residue was further extracted with 3 mL of acetonitrile/water (9:1, v/v) twice and lyophilized again. The resulting residue was reconstituted with 900 μL of methanol/water (7:3, v/v) to obtain the supernatant as an HPLC sample in which plasma was 20-fold concentrated.
Urine samples were pooled at 0–24 h, and at 24–72 h across the six subjects. A 16-mL aliquot of pooled urine was concentrated 20-fold using the same process for plasma.
Faecal samples were pooled at 0–48 h, 48–96 h, and 96–168 h across the six subjects. One to two weight equivalents of water was added to the faecal samples and the samples were homogenized and mixed with the same volume of acetonitrile. After following the same procedure as for plasma, the residue was reconstituted with methanol/water (7:3, v/v) or dimethyl sulfoxide (DMSO) and centrifuged, and the faecal sample was concentrated 5-fold for use in analysis.
Alkaline Conditions: For metabolite profiling, the extracted samples from plasma, urine, and faeces were subjected to HPLC under alkaline conditions using XBridge™ Shield RP18, 3.5 μm, 4.6 × 150 mm (Waters), and a linear stepwise gradient with solvent A (consisting of water/30%trimethylamine at 100:0.1, v/v) and solvent B (consisting of acetonitrile/30%trimethylamine at 100:0.1, v/v), and a flow rate of 1 mL/min. Solvent B in the gradient started at 1% and then changed as follows: 30% (2 min), 60% (29 min), 98% (29.1 min), 98% (32 min), 1% (32.1 min), and 1% (40 min). The UV wavelength was set at 335 nm. […]
Plasma and Urine: To profile metabolites, 150 μL of the same HPLC sample of plasma or 100 μL of the same HPLC sample of urine was injected 3 separate time, and the eluates collected at 15-second intervals were combined to be measured by a liquid scintillation counter (LSC) (Tri-Carb 3100TR, PerkinElmer, Inc.) at a low level count mode for 10 min.
Faeces: A radiodetector (Radiomatic 625TR, PerkinElmer, Inc.) was used, and the area percentage of each radioactive peak on the radiochromatograms was calculated with analysis software (FLO-ONE Ver. 3.65, PerkinElmer, Inc.). […]

[5] = at pH 3.575; cited from earlier work
[6] = NCI-H2228 cells, 120-h incubation, geometric mean of triplicates
[7] = male, human, plasma, human plasma, 37 °C 24 h dialysis, mean ± SD of triplicates
[8] = human, single oral 600 mg/67 μCi [14C]alectinib, pooled across n = 6, ND: Not detected

## CCc1cc2c(cc1N1CCC(NCCO)CC1)C(C)(C)c1[nH]c3cc(C#N)ccc3c1C2=O [M4, 9-ethyl-8-[4-(2-hydroxyethylamino)-1-piperidyl]-6,6-dimethyl-11-oxo-5H-benzo[b]carbazole-3-carbonitrile]
[1]; [6]
  IC50: 37 nM
[2]; male, human, plasma, human plasma, 0.3 μg/mL, 37 °C 24 h dialysis, mean ± SD of triplicates
  fraction unbound at 24 h, 0.3 μg/mL: 0.009
[2]; [7]
  fraction unbound at 24 h, 1 μg/mL: 0.005
[2]; male, human, plasma, human plasma, 2 μg/mL, 37 °C 24 h dialysis, mean ± SD of triplicates
  fraction unbound at 24 h, 2 μg/mL: 0.005
[2]; male, human, plasma, human plasma, all concentrations investigated, read-out: human plasma protein binding over the range of concentration investigated
  fraction unbound at 24 h: < 0.01
[2]; male
  recovery at 24 h: 82.7 ± 2.5%
[3]; human plasma, LC/MS drug concentration vs total radioactivity
  AUC ratio for the percentage of total drug-related systemic exposure: 15%
[3]; human, faeces, single oral [14C]alectinib
  amount of metabolite in faecal samples, % of the dose administered: 5.8%
[3]; [8]
  Percentage of drug related compound in analytical sample, Faeces 0–48 h: 1.1%
  Percentage of drug related compound in analytical sample, Faeces 48–96 h: 11.0%
  Percentage of drug related compound in analytical sample, Faeces 96–168 h: 37.3%
  Percentage of drug related compound in analytical sample, Plasma 4 h + 6 h: 7.0%
  Percentage of drug related compound in analytical sample, Plasma 8 h + 12 h: 9.9%
  Percentage of drug related compound in analytical sample, Urine 0–24 h: 9.0%
  Percentage of drug related compound in analytical sample, Urine 24–72 h: 24.2%
ALK
  IC50: 1.2 nM

## CCc1cc2c(cc1N1CCC(N(CCO)CC(=O)O)CC1)C(C)(C)c1[nH]c3cc(C#N)ccc3c1C2=O [M1b]
[1]; [6]
  IC50: 320 nM
  IC50 Cell growth: much weaker effect
[1]; cell medium contained 10% FBS
  fold shift in IC50 from the ALK enzyme inhibition assay to the cell growth inhibition assay: ~200 fold
ALK
  IC50: 1.6 nM

## CCc1cc2c(cc1N1CCC(N)CC1)C(C)(C)c1[nH]c3cc(C#N)ccc3c1C2=O [M6, 8-(4-amino-1-piperidyl)-9-ethyl-6,6-dimethyl-11-oxo-5H-benzo[b]carbazole-3-carbonitrile]
[3]; [8]
  Percentage of drug related compound in analytical sample, Faeces 96–168 h: 5.6%

## CCc1cc2c(cc1N1CCC(NCCOCC(=O)O)CC1)C(C)(C)c1[nH]c3cc(C#N)ccc3c1C2=O [M1a]
[4]; human faeces 48–96 h, fractionated M1, acidic HPLC conditions, radioactivity
  ratio of M1a peak to M1b peak, radiochromatogram: 1 to 9 and 1/9
[4]; human faeces 48–96 h, fractionated M1, acidic conditions, [M + H]+
  ratio of M1a to M1b, extracted ion chromatogram (XIC): 1 to 3 and 1/3
[4]; human plasma, LC-MS acidic conditions
  ratio of M1a to M1b in the XIC, plasma: 1/8
[4]; human urine, LC-MS acidic conditions
  ratio of M1a to M1b in the XIC, urine: 1/10

## CCc1cc2c(cc1N1CCC(N3CCOCC3)CC1)C(C)(C)c1[nH]c3cc(C#N)ccc3c1C2=O [Alectinib, 9-ethyl-6,6-dimethyl-8-(4-morpholino-1-piperidyl)-11-oxo-5H-benzo[b]carbazole-3-carbonitrile, reference compound]
[5]
  logD: 1.96
[2]; human plasma, all concentrations investigated
  human plasma protein binding over the range of concentration investigated: higher than 99%
[2]; male, human, plasma, human plasma, 0.1 μg/mL, 37 °C 24 h dialysis, mean ± SD of triplicates
  fraction unbound at 24 h, 0.1 μg/mL: 0.004
[2]; [7]
  fraction unbound at 24 h, 1 μg/mL: 0.003
[2]; male, human, plasma, human plasma, 10 μg/mL, 37 °C 24 h dialysis, mean ± SD of triplicates
  fraction unbound at 24 h, 10 μg/mL: 0.003
[2]; male
  recovery at 24 h: 85 ± 1.7%
[3]; human ADME study, 600 mg oral [14C]alectinib
  Cmax in plasma: 175 ng/mL
[3]; human, up to 168 h post-dose, % of dose administered
  recovery of radioactivity within excretion in faeces: 97.8%
[3]; human, up to 168 h post-dose
  recovery of radioactivity within excretion in urine: 0.5%
